According to PMC9837035 (Nature Communications, 2023):
Where “and” joins values, the source holds several entries; their conditions need not be identical. Equal entries are not always repeated.

Assays:
[1] = tested on: β- and γ-globin genes in HUDEP-2 cells; experiment: RT-qPCR of β- and γ-globin in HUDEP-2 cells; format: cell-based, human; conditions: for β-globin expression in HUDEP-2 cells / γ-globin expression in HUDEP-2 cells: relative to DMSO = 1, replicate values
Protocol: (§1) Total cellular RNA was prepared using the Tissue Total RNA Mini Kit (FAVORGEN), and cDNA was synthesized using ReverTra Ace Master Mix (TOYOBO). Expression of target genes was analyzed using THUNDERBIRD SYBR qPCR Mix (TOYOBO) on a CFX Connect Real Time System (Bio-Rad). The qPCR data were acquired on CFX Maestro (Bio-Rad). Primers are listed in Supplementary Table 10. GAPDH was used as a reference. Primers were purchased from INTEGRATED DNA TECHNOLOGIES or FASMAC.

[2] = tested on: H3K9me2 in HUDEP-2 cells; experiment: Western blotting of H3K9me2 in HUDEP-2 cells; format: cell-based, human; conditions: HUDEP-2, 4 days
Protocol: Preparation of cell lysates and western blotting were performed as described previously. Protein from cells lysates in lysis buffer (50 mM Tris-HCl (pH 7.5), 150 mM NaCl, 5 mM EDTA, 0.1% NP-40, 1 mM dithiothreitol) were separated by sodium dodecyl sulfate–polyacrylamide gel electrophoresis (SDS-PAGE) and transferred to a polyvinylidene difluoride (PVDF) membrane (Millipore) by electroblotting. The membranes incubated with primary antibodies overnight at 4 °C and secondary antibodies for 1 h at room temperature. The immune complexes were detected with the Immobilon Western Chemiluminescent HRP Substrate (Millipore). Luminescence was analyzed on a FUSION SOLO S (Vilber). Western blot bands were visualized using Evolution Capt software (M&S Instruments Inc.). Primary antibodies used were anti-G9a (1:1000, CST, #3306), anti–α-tubulin (1:5000, Abcam, ab18251), anti-H3K9me2 (1:3000, Abcam, ab1220), anti-H3 (1:5000, Abcam, ab1791), anti-H3K27me3 (1:3000, Sigma, 07-449), anti-GLP (1:1000, CST, #35005), anti-FLAG (100 ng/ml, Fujifilm, 01422383), anti-His (1:5000, MBL, PM032), anti-BCL11A (1:1000, abcam, ab19487), anti-ZBTB7A (1:1000, CST, #50565), anti-CHD3 (1:1000, Novus Biologicals, NB100-60412), and anti-CHD4 (1:1000, abcam, ab240640). Uncropped scans of all of the blots are available in Source Data file.

[3] = tested on: HUDEP-2 cells; experiment: Cell viability assay (WST-8), HUDEP-2; format: cell-based, human
Protocol: A WST-8 (2-(2-methoxy-4-nitrophenyl)-3-(4-nitrophenyl)-5-(2,4-disulfophenyl)-2H-tetrazolium) assay using a Cell Counting Kit-8 (DOJINDO) was performed to measure cell viability using an EnSpire microplate reader (PerkinElmer).

[4] = tested on: BGLT3 RNA in HUDEP-2 cells; experiment: RT-qPCR of BGLT3 in HUDEP-2 cells; format: cell-based, human; conditions: for BGLT3 expression in HUDEP-2 cells: relative to DMSO = 1, replicate values
Protocol: as §1

[5] = target: T1, ASH1L (Homo sapiens, UniProt Q9NR48); experiment: Radioisotope-based methyltransferase assay (selectivity); format: biochemical; conditions: IC50, ASH1L
T1 construct: purchased Reaction Biology

[6] = target: T2, PRDM9 (Homo sapiens, UniProt Q9NQV7); experiment: as above; format: biochemical
T2 construct: purchased Reaction Biology
T2 sequence (Q9NQV7 whole entry): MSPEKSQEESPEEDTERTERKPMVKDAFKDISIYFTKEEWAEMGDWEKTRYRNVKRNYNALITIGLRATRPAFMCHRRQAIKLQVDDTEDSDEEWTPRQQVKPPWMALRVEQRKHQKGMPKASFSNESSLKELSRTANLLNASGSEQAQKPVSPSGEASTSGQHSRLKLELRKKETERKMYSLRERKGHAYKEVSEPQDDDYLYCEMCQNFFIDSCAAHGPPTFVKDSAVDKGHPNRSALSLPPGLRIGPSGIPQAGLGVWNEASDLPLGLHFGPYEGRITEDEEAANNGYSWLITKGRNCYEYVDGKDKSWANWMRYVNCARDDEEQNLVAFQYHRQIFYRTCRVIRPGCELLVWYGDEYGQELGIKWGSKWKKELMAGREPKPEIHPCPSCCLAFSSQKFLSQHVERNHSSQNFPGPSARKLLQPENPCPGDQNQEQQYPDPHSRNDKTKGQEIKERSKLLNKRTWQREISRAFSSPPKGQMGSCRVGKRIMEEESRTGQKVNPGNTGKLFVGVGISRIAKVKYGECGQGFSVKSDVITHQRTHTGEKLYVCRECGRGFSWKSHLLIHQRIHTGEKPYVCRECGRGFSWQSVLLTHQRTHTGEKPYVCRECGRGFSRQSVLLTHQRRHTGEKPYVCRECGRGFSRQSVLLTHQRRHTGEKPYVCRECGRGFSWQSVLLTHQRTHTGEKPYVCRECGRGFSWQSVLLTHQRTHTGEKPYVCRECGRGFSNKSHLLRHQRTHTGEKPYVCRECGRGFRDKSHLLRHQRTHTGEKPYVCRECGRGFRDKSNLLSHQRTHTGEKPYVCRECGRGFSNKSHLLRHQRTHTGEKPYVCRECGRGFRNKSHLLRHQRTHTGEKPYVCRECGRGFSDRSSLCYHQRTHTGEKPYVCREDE

[7] = target: T3, NSD3 (Homo sapiens, UniProt Q9BZ95); experiment: as above; format: biochemical
T3 construct: purchased Reaction Biology
T3 sequence (Q9BZ95 1-1437): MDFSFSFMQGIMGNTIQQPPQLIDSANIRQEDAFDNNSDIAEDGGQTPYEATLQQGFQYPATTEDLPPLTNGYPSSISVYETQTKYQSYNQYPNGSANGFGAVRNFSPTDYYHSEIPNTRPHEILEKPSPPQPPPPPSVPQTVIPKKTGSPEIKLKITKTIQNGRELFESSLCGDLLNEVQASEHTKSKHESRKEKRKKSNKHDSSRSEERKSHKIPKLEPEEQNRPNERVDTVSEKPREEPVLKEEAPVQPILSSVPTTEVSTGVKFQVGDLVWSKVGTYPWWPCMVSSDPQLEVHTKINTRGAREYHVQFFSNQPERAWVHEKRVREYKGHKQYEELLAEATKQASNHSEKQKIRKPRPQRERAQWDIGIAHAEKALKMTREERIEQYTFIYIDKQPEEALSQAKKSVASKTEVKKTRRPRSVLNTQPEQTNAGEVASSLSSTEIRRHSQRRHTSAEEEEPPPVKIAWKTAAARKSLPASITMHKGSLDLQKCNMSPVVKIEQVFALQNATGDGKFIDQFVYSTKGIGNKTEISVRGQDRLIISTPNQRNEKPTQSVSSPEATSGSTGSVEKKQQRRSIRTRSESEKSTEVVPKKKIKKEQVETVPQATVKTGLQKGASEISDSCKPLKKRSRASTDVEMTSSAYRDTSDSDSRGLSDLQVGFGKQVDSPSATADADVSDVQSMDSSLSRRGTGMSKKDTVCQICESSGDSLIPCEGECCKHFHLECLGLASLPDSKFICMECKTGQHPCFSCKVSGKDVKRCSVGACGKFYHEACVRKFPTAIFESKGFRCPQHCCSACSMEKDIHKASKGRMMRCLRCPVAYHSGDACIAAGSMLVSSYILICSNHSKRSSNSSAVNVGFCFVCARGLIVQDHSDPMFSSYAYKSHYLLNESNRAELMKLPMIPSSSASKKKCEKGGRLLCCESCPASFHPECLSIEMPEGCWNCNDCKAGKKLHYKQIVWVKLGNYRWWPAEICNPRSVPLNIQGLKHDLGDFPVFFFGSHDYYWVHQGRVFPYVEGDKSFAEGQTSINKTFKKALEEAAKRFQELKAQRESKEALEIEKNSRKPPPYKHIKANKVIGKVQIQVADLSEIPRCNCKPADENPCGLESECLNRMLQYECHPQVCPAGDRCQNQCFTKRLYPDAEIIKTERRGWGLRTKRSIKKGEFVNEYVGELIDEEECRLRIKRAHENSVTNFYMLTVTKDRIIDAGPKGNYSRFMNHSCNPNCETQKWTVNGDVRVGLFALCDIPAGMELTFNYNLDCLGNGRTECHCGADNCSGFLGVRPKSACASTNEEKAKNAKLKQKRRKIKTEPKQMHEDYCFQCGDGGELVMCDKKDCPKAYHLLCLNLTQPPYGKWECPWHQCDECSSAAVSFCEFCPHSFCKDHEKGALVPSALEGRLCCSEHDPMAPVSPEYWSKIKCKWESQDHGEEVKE

Structure (SMILES): COc1cc2c(NC3CCN(C)CC3)cc(-c3ccc(C)o3)nc2cc1OCCCN1CCCC1 [CM-272]
- β-globin expression in HUDEP-2 cells ([1]; 0.01 μM): 1.0071 and 1.036 and 1.465
- γ-globin expression in HUDEP-2 cells ([1]; 0.01 μM): 1.193 and 1.0465 and 1.534
- β-globin expression in HUDEP-2 cells ([1]; 0.03 μM): 0.9553 and 1.237 and 1.08
- γ-globin expression in HUDEP-2 cells ([1]; 0.03 μM): 1.464 and 1.528 and 1.418
- β-globin expression in HUDEP-2 cells ([1]; 0.1 μM): 1.5931 and 1.663 and 1.768
- γ-globin expression in HUDEP-2 cells ([1]; 0.1 μM): 5.304 and 3.7722 and 4.868
- β-globin expression in HUDEP-2 cells ([1]; 0.3 μM): 1.078 and 1.725 and 1.22
- γ-globin expression in HUDEP-2 cells ([1]; 0.3 μM): 5.583 and 7.681 and 5.641
- β-globin expression in HUDEP-2 cells ([1]; 1 μM): 1.093 and 1.321 and 1.148
- γ-globin expression in HUDEP-2 cells ([1]; 1 μM): 3.245 and 3.178 and 3.329
- γ-globin mRNA level ([1]; HUDEP-2): induced the expression of both BGLT3 and γ-globin
- cellular H3K9me2 levels [2]: reduction of H3K9me2 levels
- cell viability in HUDEP-2 cells ([3]; 0.123457 μM, control (0 μM) = 100): 108.704 and 95.321 and 98.9654
- cytotoxic effect on viability ([3]; HUDEP-2, 3 days): severe cell toxicity
- BGLT3 expression in HUDEP-2 cells ([4]; 0.01 μM): 1.264 and 1.918 and 0.9309
- BGLT3 expression in HUDEP-2 cells ([4]; 0.03 μM): 0.9121 and 1.179 and 0.9824
- BGLT3 expression in HUDEP-2 cells ([4]; 0.1 μM): 0.6878 and 0.8395 and 1.055
- BGLT3 expression in HUDEP-2 cells ([4]; 0.3 μM): 4.167 and 3.251 and 2.85
- BGLT3 expression in HUDEP-2 cells ([4]; 1 μM): 9.88 and 9.285 and 7.11
- BGLT3 expression ([4]; HUDEP-2): induced the expression of both BGLT3 and γ-globin

Structure (SMILES): CN1C(=O)[C@@]23C[C@]4([C@]56C[C@@]78SS[C@@](CO)(C(=O)N7[C@H]5Nc5ccccc56)N(C)C8=O)c5ccccc5N[C@@H]4N2C(=O)[C@]1(CO)SS3 [Chaetocin, reference compound]
- IC50 ([5]; 1 μM SAM): 93 nM
- IC50 ([5]; RK-701 in duplicate): 92.8 nM
- IC50 ([6]; IC50, PRDM9, 1 μM SAM): 13400 nM
- IC50 ([6]; IC50, PRDM9, RK-701 in duplicate): 13400 nM
- IC50 ([7]; IC50, NSD3, 1 μM SAM): 150 nM
- IC50 ([7]; IC50, NSD3, RK-701 in duplicate): 150 nM
